Experimental data as given in patent publication US4394504A, “Cephalosporin derivatives” (American Home Products Corporation, priority 1981, dated 1983).
≈ marks a conversion by molar mass, not a printed value. Where two headings read alike, the source gives them in different places.

Assays:
[1] = test system: Enterobacter cloacae (EN CL), strain 65-1; test: Agar serial dilution MIC, Enterobacter cloacae 65-1; type: cell-based; settings: EN CL 65-1
Text: (§1) The antibacterial compounds of this invention are effective against gram-positive and gram-negative test organisms at inhibitory concentrations at or below 250 micrograms per milliliter using the well-known and scientifically accepted agar serial dilution technique. Thus, the antibacterial agents of this invention are useful in the fields of comparative pharmacology and microbiology and may be used in the treatment of infections amenable to treatment with cephalosporins and penicillins such as bovine mastitis as well as in the eradication of bacterial colonies outside the animal host.
(§2) The following examples are presented for purposes of illustration and should not be construed as limitations upon the true scope of this invention.
EN CL--Enterobacter cloacae, […]

[2] = test system: Proteus vulgaris (PR VU), strain 6896; test: Agar serial dilution MIC, Proteus vulgaris 6896; type: cell-based
Text: as §1, §2

[3] = test system: Klebsiella pneumoniae (KL PN), strain 10031; test: Agar serial dilution MIC, Klebsiella pneumoniae 10031; type: cell-based; settings: KL PN 10031
Text: as §1, §2
KL PN--Klebsiella pneumoniae, […]

[4] = test system: Staphylococcus aureus (ST AU), strain SMITH; test: Agar serial dilution MIC, Staphylococcus aureus SMITH; type: cell-based
Text: as §1, §2
(§3) ST AU--Staphylococcus aureus, […]

[5] = test system: Proteus mirablis (PR MI), strain 9921; test: Agar serial dilution MIC, Proteus mirablis 9921; type: cell-based
Text: as §1, §2

[6] = test system: Staphylococcus aureus (ST AU), strain 53-180; test: Agar serial dilution MIC, Staphylococcus aureus 53-180; type: cell-based
Text: as §1, §2, §3

[7] = test system: Salmonella paratyphi (SA PA), strain 11737; test: Agar serial dilution MIC, Salmonella paratyphi 11737; type: cell-based; settings: Salmonella enterica
Text: as §1, §2
SA PA--Salmonella paratyphi, […]

[8] = test system: Enterobacter aerogenes (EN AE), strain 13048; test: Agar serial dilution MIC, Enterobacter aerogenes 13048; type: cell-based; settings: Klebsiella aerogenes, EN AE 13048
Text: as §1, §2
EN AE--Enterobacter aerogenes, […]

[9] = test system: Staphylococcus aureus (ST AU), strain CHP; test: Agar serial dilution MIC, Staphylococcus aureus CHP; type: cell-based
Text: as §1, §2, §3

[10] = test system: Staphylococcus aureus (ST AU), strain 6538P; test: Agar serial dilution MIC, Staphylococcus aureus 6538P; type: cell-based; settings: ST AU 6538P
Text: as §1, §2, §3

[11] = test system: Escherichia coli (ES CO), strain 9637; test: Agar serial dilution MIC, Escherichia coli 9637; type: cell-based; settings: ES CO 9637
Text: as §1, §2

[12] = test system: Bacillus subtilis (BA SU), strain 6633; test: Agar serial dilution MIC, Bacillus subtilis 6633; type: cell-based
Text: as §1, §2
BA SU--Bacillus subtilis, […]

[13] = test system: Salmonella paratyphi (SA PA), strain 11737; test: Microdilution tube dilution assay MIC, Salmonella paratyphi 11737; type: cell-based; settings: Salmonella enterica
[14] = test system: Staphylococcus aureus (ST AU), strain 209P; test: Microdilution tube dilution assay MIC, Staphylococcus aureus 209P; type: cell-based
Text: as §2
(§4) ST AU--Staphylococcus aureus,
(§5) The product of Example 18 was reexamined by the microdilution method of tube dilution assay employing Mueller Hinton Broth whereby standardized cultures were introduced into serially diluted antibiotic from Example 18.

[15] = test system: Proteus vulgaris (PR VU), strain 6896; test: Microdilution tube dilution assay MIC, Proteus vulgaris 6896; type: cell-based; settings: Mueller Hinton Broth, PR VU 6896
Text: as §2, §5

[16] = test system: Staphylococcus aureus (ST AU), strain 53-180; test: Microdilution tube dilution assay MIC, Staphylococcus aureus 53-180; type: cell-based; settings: Mueller Hinton Broth, ST AU 53-180
Text: as §2, §4, §5

[17] = test system: Escherichia coli (ES CO), strain 9637; test: Microdilution tube dilution assay MIC, Escherichia coli 9637; type: cell-based; settings: Mueller Hinton Broth, ES CO 9637
Text: as §2, §5

[18] = test system: Klebsiella pneumoniae (KL PN), strain 10031; test: Microdilution tube dilution assay MIC, Klebsiella pneumoniae 10031; type: cell-based; settings: Mueller Hinton Broth, KL PN 10031
Text: as §2
KL PN--Klebsiella pneumoniae,
as §5

[19] = test system: Bordetella brochiseptica (BO BR), strain 4617; test: Microdilution tube dilution assay MIC, Bordetella brochiseptica 4617; type: cell-based; settings: Mueller Hinton Broth, BO BR 4617
Text: as §2
BO BR--Bordetella brochiseptica,
as §5

ES IN, strain 65-1 = test: Microdilution tube dilution assay MIC, ES IN 65-1; type: cell-based, Escherichia intermedia; settings: Citrobacter intermedius
Text: as §2
ES IM--Escherichia intermedia.
as §5

[20] = test system: Enterobacter aerogenes (EN AE), strain 13048; test: Microdilution tube dilution assay MIC, Enterobacter aerogenes 13048; type: cell-based; settings: Klebsiella aerogenes
Text: as §2
EN AE--Enterobacter aerogenes,
as §5

[21] = test system: Staphylococcus aureus (ST AU), strain CHP; test: Microdilution tube dilution assay MIC, Staphylococcus aureus CHP; type: cell-based; settings: Mueller Hinton Broth
Text: as §2, §4, §5

[22] = test system: Staphylococcus aureus (ST AU), strain SMITH; test: Microdilution tube dilution assay MIC, Staphylococcus aureus SMITH; type: cell-based; settings: Mueller Hinton Broth
Text: as §2, §4, §5

[23] = test system: Pseudomonas aeruginosa (PS AE), strain 10145; test: Microdilution tube dilution assay MIC, Pseudomonas aeruginosa 10145; type: cell-based; settings: Mueller Hinton Broth, PS AE 10145
Text: as §2
PS AE--Pseudomonas aeruginosa,
as §5

[24] = test system: Bacillus subtilis (BA SU), strain 6633; test: Microdilution tube dilution assay MIC, Bacillus subtilis 6633; type: cell-based
Text: as §2
BA SU--Bacillus subtilis,
as §5

[25] = test system: Herellea species (HE SP), strain 9955; test: Microdilution tube dilution assay MIC, Herellea species 9955; type: cell-based; settings: Mueller Hinton Broth, HE SP 9955
Text: as §2, §5

[26] = test system: Proteus mirablis (PR MI), strain 9921; test: Microdilution tube dilution assay MIC, Proteus mirablis 9921; type: cell-based
Text: as §2, §5

[27] = test system: Bordetella brochiseptica (BO BR), strain 4617; test: Agar serial dilution MIC, Bordetella brochiseptica 4617; type: cell-based; settings: BO BR 4617
Text: as §1, §2
BO BR--Bordetella brochiseptica, […]

AC CA, strain 9955 = test: Agar serial dilution MIC, AC CA 9955; type: cell-based
Text: as §1, §2

Q: For `CO/N=C(/C(=O)NC1C(=O)N2C(C(=O)O)=C(COC(C)=O)CSC12)c1cc(N)no1` (stereo not drawn) [Example 15, 3-Acetoxymethyl-7-[2-(3-Amino-5-Isoxazolyl)-2-anti-Methoxyiminoacetamido]-Ceph-3-em-4-Carboxylic Acid], which MIC [1] is on record?
A: 62.5 µg/mL (≈ 142 µM)

Q: And the MIC ([2]; agar serial dilution, PR VU 6896, read-out: MIC)?
A: 31.3 µg/mL (≈ 71.2 µM)

Q: And the MIC [3]?
A: 15.6 µg/mL (≈ 35.5 µM)

Q: And the MIC ([4]; agar serial dilution, ST AU SMITH, read-out: MIC)?
A: 3.9 µg/mL (≈ 8.88 µM)

Q: And the MIC ([5]; agar serial dilution, PR MI 9921, read-out: MIC)?
A: 7.81 µg/mL (≈ 17.8 µM)

Q: What about the MIC [6] of the same compound?
A: 15.6 µg/mL (≈ 35.5 µM)

Q: And the MIC [7]?
A: 15.6 µg/mL (≈ 35.5 µM)

Q: What about the MIC [8] of the same compound?
A: 62.5 µg/mL (≈ 142 µM)

Q: And the MIC [9]?
A: 15.6 µg/mL (≈ 35.5 µM)

Q: And the MIC [10]?
A: 7.81 µg/mL (≈ 17.8 µM)

Q: And the MIC [11]?
A: 15.6 µg/mL (≈ 35.5 µM)

Q: And the MIC ([12]; agar serial dilution, BA SU 6633, read-out: MIC)?
A: 7.81 µg/mL (≈ 17.8 µM)

Q: Which results are given for `CO/N=C(\C(=O)N[C@@H]1C(=O)N2C(C(=O)O)=C(COC(C)=O)CS[C@H]12)c1csc(N)n1` [Cefotaxime, reference compound]?
A: MIC [13]: 0.0076 µg/mL (≈ 0.0167 µM); MIC ([14]; 209P): 0.488 µg/mL (≈ 1.07 µM); MIC [15]: 0.00023 µg/mL (≈ 0.000505 µM); MIC [16]: 0.976 µg/mL (≈ 2.14 µM); MIC [17]: 0.0038 µg/mL (≈ 0.00834 µM); MIC [18]: 0.06 ng/mL (≈ 0.000132 µM); MIC [19]: 15.6 µg/mL (≈ 34.3 µM); MIC (ES IN, strain 65-1; microdilution, Mueller Hinton Broth, ES IN 65-1, read-out: MIC): 0.0038 µg/mL (≈ 0.00834 µM); MIC ([20]; microdilution, Mueller Hinton Broth, EN AE 13048, read-out: MIC): 0.0152 µg/mL (≈ 0.0334 µM); MIC [21]: 3.9 µg/mL (≈ 8.56 µM); MIC [22]: 0.244 µg/mL (≈ 0.536 µM); MIC [23]: 3.9 µg/mL (≈ 8.56 µM); MIC [24]: 0.488 µg/mL (≈ 1.07 µM); MIC [25]: 15.6 µg/mL (≈ 34.3 µM); MIC [26]: 0.0019 µg/mL (≈ 0.00417 µM)

Q: Which results are given for `CO/N=C(\C(=O)NC1C(=O)N2C(C(=O)O)=C(COC(C)=O)CSC12)c1cc(N)no1` (stereo not drawn) [Example 18, 3-Acetoxymethyl-7-[2-(3-Amino-5-Isoxazolyl)-2-syn-Methoxy-Iminoacetamido]-Ceph-3-em-4-Carboxylic Acid]?
A: MIC [1]: 1.95 µg/mL (≈ 4.44 µM); MIC [13]: 0.488 µg/mL (≈ 1.11 µM); MIC [2]: 0.976 µg/mL (≈ 2.22 µM); MIC [27]: 250 µg/mL (≈ 569 µM); MIC [3]: 0.488 µg/mL (≈ 1.11 µM); MIC [4]: 0.488 µg/mL (≈ 1.11 µM); MIC [5]: 0.488 µg/mL (≈ 1.11 µM); MIC ([6]; agar serial dilution, ST AU 53-180, read-out: MIC): 3.9 µg/mL (≈ 8.88 µM); MIC ([14]; microdilution, Mueller Hinton Broth, ST AU 209P, read-out: MIC): 0.244 µg/mL (≈ 0.555 µM); MIC [7]: 0.488 µg/mL (≈ 1.11 µM); MIC [15]: 0.122 µg/mL (≈ 0.278 µM); MIC [16]: 0.488 µg/mL (≈ 1.11 µM); MIC [17]: 0.122 µg/mL (≈ 0.278 µM); MIC [18]: 15.2 ng/mL (≈ 0.0346 µM); MIC [19]: 125 µg/mL (≈ 284 µM); MIC (ES IN, strain 65-1): 0.488 µg/mL (≈ 1.11 µM); MIC [8]: 31.3 µg/mL (≈ 71.2 µM); MIC [20]: 0.976 µg/mL (≈ 2.22 µM); MIC (AC CA, strain 9955): 125 µg/mL (≈ 284 µM); MIC [21]: 3.9 µg/mL (≈ 8.88 µM); MIC [22]: 0.244 µg/mL (≈ 0.555 µM); MIC [23]: 125 µg/mL (≈ 284 µM); MIC ([24]; microdilution, Mueller Hinton Broth, BA SU 6633, read-out: MIC): 1.95 µg/mL (≈ 4.44 µM); MIC ([9]; agar serial dilution, ST AU CHP, read-out: MIC): 7.81 µg/mL (≈ 17.8 µM); MIC [10]: 1.95 µg/mL (≈ 4.44 µM); MIC [11]: 0.488 µg/mL (≈ 1.11 µM); MIC [25]: 62.5 µg/mL (≈ 142 µM); MIC [12]: 0.488 µg/mL (≈ 1.11 µM); MIC ([26]; microdilution, Mueller Hinton Broth, PR MI 9921, read-out: MIC): 0.122 µg/mL (≈ 0.278 µM)
